Experimental data reported in US20190231740A1, “BLOOD FLOW-IMPROVING AGENT, ROYAL JELLY COMPOSITION, AND METHOD FOR PRODUCING ROYAL JELLY COMPOSITION” (YAMADA BEE COMPANY, INC., priority 2016, published 2019).

System: blood flow volume of a hindlimb of the rat
Test: Hindlimb blood flow volume of rats after oral administration, measured with a two-dimensional laser blood flow meter
Format: in vivo
Details: male SD rat hindlimb; for Increase in blood flow volume: one hour after oral administration vs before administration, average of three rats; for Increase in blood flow volume / Change in hindlimb blood flow volume between before and after the administration (in words): 10-hydroxydecanoic acid 120 mg/kg, 10-H2DA 420 mg/kg, Toki-shakuyaku-san 3750 mg/kg; for Change in hindlimb blood flow volume between before and after the administration (in words): one hour after oral administration
Protocol: As a test animal, a 6 to 8 week-old male rat Slc: SD rat (Japan SLC, Inc.) was used. As test substances, 10-hydroxydecanoic acid (manufactured by Combi-Blocks Inc.), trans-10-hydroxy-2-decenoic acid (referred to as “10-H2DA” hereinafter, manufactured by HANGZOU EASTBIOPHARM CO., LTD.) and Toki-shakuyaku-san (manufactured by TSUMURA & CO.) were used. A 0.5% w/v aqueous solution of methyl cellulose 400 (Wako Pure Chemical Industries, Ltd.) was prepared, and in the aqueous solution, the test substances were each suspended, thereby preparing a 12 mg/mL solution of 10-hydroxydecanoic acid, a 42 mg/ml solution of 10-H2DA and a 375 mg/ml solution of Toki-shakuyaku-san. The test animals were divided into four groups each consisting of three animals, and these groups were referred to as a 10-hydroxydecanoic acid group, a 10-H2DA group, a Toki-shakuyaku-san group and a control group. Using a gastric tube, the respective methyl cellulose aqueous solutions were orally administered to the 10-hydroxydecanoic acid group in such a desired amount that the amount of 10-hydroxydecanoic acid was 120 mg/kg, to the 10-H2DA group in such a desired amount that the amount of 10-H2DA was 420 mg/kg, and to the Toki-shakuyaku-san group in such a desired amount that the amount of Toki-shakuyaku-san was 3750 mg/kg. To the control group, a control substance (0.5% w/v methyl cellulose aqueous solution 10 mL/kg) was orally administered using a gastric tube.
Before the administration of the test substance and after one hour from the administration, a blood flow volume of a hindlimb of the rat was measured in an awaking and non-fixed state. For the measurement, a two-dimensional laser blood flow meter OZ-1 (manufactured by OMEGAWAVE INC.) was used. An increase in the blood flow volume (average value of three rats) based on that before the administration of each of the control group, the 10-hydroxydecanoic acid group, the 10-H2DA group and the Toki-shakuyaku-san group after one hour from the administration is shown in Table 1.

For O=C(O)/C=C/CCCCCCCO [10-H2DA, trans-10-hydroxy-2-decenoic acid, reference compound], the “Increase in blood flow volume” value was 2.2 arbitrary unit and the “Change in hindlimb blood flow volume between before and after the administration (in words)” value was “a certain increase in the blood flow volume”.
In the case of O=C(O)CCCCCCCCCO [10-Hydroxydecanoic acid, 10-hydroxydecanoic acid], the “Difference in blood flow volume between the control group and the treated group” value (one hour after oral administration of 120 mg/kg, FIG. 1) is reported as “a significant difference (P=0.01)”, the “Increase in blood flow volume” value is reported as 5.8 arbitrary unit and the “Change in hindlimb blood flow volume between before and after the administration (in words)” value is reported as “a remarkable increase in the blood flow volume”.
